Where two headings read alike, the source gives them in different places.
Columns and labels:
HT29 = experiment: Microculture tetrazolium assay; type: cell-based; details: read-out: IC50
P388/ADR = experiment: Soft agar colony formation disk diffusion assay; type: cell-based, murine
Text: (§1) A more elaborate version of this fundamental assay, the soft agar colony formation disk diffusion assay was used. This assay defines the relative activity of one particular drug versus a tumoral cell line type. The effect of the test drug against tumoral cells could be measured by its inhibitory capacity against colony formation after the delivery of the compound, in different concentrations on an filter disk(4). A modified technique of this assay was used in order to investigate the antiproliferative activity of candidate compounds. Tumoral cells from solid tumors and ascitic lines were plated separately in a two layer agar matrix. Cell lines to be tested were suspended in an upper layer of 0.4% Noble agar (Difco#00142-01) in RPMI-1066 (Gibco#3201875) at a yield varying between 10^4 to 2×10^5 cells per 60 mm Petri dish. Plating efficiency was determined for each line in order to achieve an optimal number of colonies per dish. Plates were examined before drug administration to confirm a uniform dispersion of single cells. The bottom layer consisted of 0.8% Noble agar, 0.8% Tryptic Soy Broth (difco#0037001)in CMRL-1066/Fischer's. The bottom layers were used within 2 and 9 days of preparation. Plated dishes (bottom layer of agar, upper layer of cells and administered drug were incubated in humidified atmosphere at 37° C., 5% CO2 for 10-20 days depending upon the time necessary to observe adequate colonies (defined as a cell aggregate of more than 50 cells) both control and drug inhibited. Drugs were administered on a paper filter disk (Whatman No. 1) of 6.5 mm diameter placed on the upper layer at 1/3 distance from the edge of the dish. The anti-clonogenic activity of the compounds was measured as the zone of inhibition from the disk edge to the most proximal colonies. This zone of inhibition was checked on an inverted microscope (40×) and was measured with a micrometer mounted in the eyepiece. The ocular micrometer was calibrated with a stage micrometer set for a particular combination of ocular and objective lenses. […] We made a modification of the initial technique by not plating a solid tumor and a leukemia simultaneously in the same Petri dish. Anti-clonogenic tests performed on leukemia cell line have helped in the discovery of the majority of current clinically used cytostatic drugs. Our tests on solid tumor lines (animal or human) may help define active compounds with solid tumor specificity. […] Murine tumors were maintained IN VIVO in order to diminish the selection of subpopulations of cells normally present in the heterogenous IN VIVO tumor. The actual drug sensitivity assay was done IN VITRO. For these experiments cells from freshly excised tumors or from ascitic fluids were maintained in RPMI-1066. Both compounds were dissolved in DMSO (1 mg/100 ul) and brought to final volume (250 ul) with Millipore deionized sterile water. Further dilutions were made with […] volume of 25 ul of freshly prepared solution was placed on the filter disk and allowed to dry.

B16 = experiment: Soft agar colony formation disk diffusion assay; type: cell-based, murine
Text: as §1

M5076 = experiment: Soft agar colony formation disk diffusion assay; type: cell-based, murine
Text: as §1

P388 = experiment: Soft agar colony formation disk diffusion assay; type: cell-based, murine
Text: as §1

LS180 = experiment: Soft agar colony formation disk diffusion assay; type: cell-based, human
Text: (§2) A more elaborate version of this fundamental assay, the soft agar colony formation disk diffusion assay was used. This assay defines the relative activity of one particular drug versus a tumoral cell line type. The effect of the test drug against tumoral cells could be measured by its inhibitory capacity against colony formation after the delivery of the compound, in different concentrations on an filter disk(4). A modified technique of this assay was used in order to investigate the antiproliferative activity of candidate compounds. Tumoral cells from solid tumors and ascitic lines were plated separately in a two layer agar matrix. Cell lines to be tested were suspended in an upper layer of 0.4% Noble agar (Difco#00142-01) in RPMI-1066 (Gibco#3201875) at a yield varying between 10^4 to 2×10^5 cells per 60 mm Petri dish. Plating efficiency was determined for each line in order to achieve an optimal number of colonies per dish. Plates were examined before drug administration to confirm a uniform dispersion of single cells. The bottom layer consisted of 0.8% Noble agar, 0.8% Tryptic Soy Broth (difco#0037001)in CMRL-1066/Fischer's. The bottom layers were used within 2 and 9 days of preparation. Plated dishes (bottom layer of agar, upper layer of cells and administered drug were incubated in humidified atmosphere at 37° C., 5% CO2 for 10-20 days depending upon the time necessary to observe adequate colonies (defined as a cell aggregate of more than 50 cells) both control and drug inhibited. Drugs were administered on a paper filter disk (Whatman No. 1) of 6.5 mm diameter placed on the upper layer at 1/3 distance from the edge of the dish. The anti-clonogenic activity of the compounds was measured as the zone of inhibition from the disk edge to the most proximal colonies. This zone of inhibition was checked on an inverted microscope (40×) and was measured with a micrometer mounted in the eyepiece. The ocular micrometer was calibrated with a stage micrometer set for a particular combination of ocular and objective lenses. […] We made a modification of the initial technique by not plating a solid tumor and a leukemia simultaneously in the same Petri dish. Anti-clonogenic tests performed on leukemia cell line have helped in the discovery of the majority of current clinically used cytostatic drugs. Our tests on solid tumor lines (animal or human) may help define active compounds with solid tumor specificity. […] HUMAN TUMORS. […] LS180 (13) and BE1(14) were obtained from the Oncology Dept. of the Montreal General Hospital. […] Cell lines were routinely passaged twice a week by trypsinization and maintained in 25, or 75-sq. cm Falcon Plastic flasks at 37° C., 5% CO2 in humidified atmosphere. Both compounds were dissolved in DMSO (1 mg/100 ul) and brought to final volume (250 ul) with Millipore deionized sterile water. Further dilutions were made with […] volume of 25 ul of freshly prepared solution was placed on the filter disk and allowed to dry.

MCF7/ADR = experiment: Soft agar colony formation disk diffusion assay; type: cell-based, human
Text: as §2

MCF7 = experiment: Soft agar colony formation disk diffusion assay; type: cell-based, human
Text: as §2

LOX = experiment: Microculture tetrazolium assay; type: cell-based; details: read-out: IC50
SKOV3 = experiment: Microculture tetrazolium assay; type: cell-based; details: read-out: IC50

Compound	IC50 (HT29; HT29) [µM]	zone of inhibition (P388/ADR; 10 μg/DISK) [Zone Units]	zone of inhibition (P388/ADR; 100 μg/DISK) [Zone Units]	zone of inhibition (B16; 10 μg/DISK) [Zone Units]	zone of inhibition (B16; 100 μg/DISK) [Zone Units]	zone of inhibition (M5076; 10 μg/DISK) [Zone Units]	zone of inhibition (M5076; 100 μg/DISK) [Zone Units]	zone of inhibition (P388; 10 μg/DISK) [Zone Units]	zone of inhibition (P388; 100 μg/DISK) [Zone Units]	zone of inhibition (LS180; 10 μg/DISK) [Zone Units]	zone of inhibition (LS180; 100 μg/DISK) [Zone Units]	zone of inhibition (MCF7/ADR; 10 μg/DISK) [Zone Units]	zone of inhibition (MCF7/ADR; 100 μg/DISK) [Zone Units]	zone of inhibition (MCF7; 10 μg/DISK) [Zone Units]	zone of inhibition (MCF7; 100 μg/DISK) [Zone Units]	IC50 (LOX) [µM]	IC50 (SKOV3; SKOV3) [µM]	IC50 (HT29; Homo sapiens, HT-29, HT29) [µM]	IC50 (SKOV3; Homo sapiens, SK-OV-3, SKOV3) [µM]	cross resistance with adriamycin, MCF7/ADR vs MCF7 (MCF7/ADR)
3-(2-acetoxy-1-propeneketal)aceto-6-acetoxy-1-hydroxy-1,2,3,4-tetrahydro-(2-oxygen)naphtacene-5,12-dione and 3-(2-acetoxy-1-propeneketal)-aceto-11-acetoxy-1-hydroxy-1,2,3,4-tetrahydro-(2-oxygen)naphtacene-5,12-dione [BCH-710]	1.79	0	110.0 ± 0.0	21.0 ± 2.1	21.0 ± 2.1	209.5 ± 21.9	533.0 ± 20.0	13.0 ± 0.0	326.5 ± 43.1	48.5 ± 26.1	110.0 ± 50.2	0	106.0 ± 21.9	0	24.0 ± 8.4	3.51	3.98			
3-Carbomethoxy-1,11-dihydroxy-1,2,3,4-tetrahydro-(2-oxygen)naphthacene-5,12-dione 3-Carbomethoxy-1,6-dihydroxy-1,2,3,4-tetrahydro-(2-oxygen)naphthacene-5,12-dione [BCH-711]	5.68	40.0 ± 20.0	150.0 ± 30.0	27.0 ± 4.2	137.0 ± 21.2	55.0 ± 8.4	198.0 ± 21.2	45.5 ± 21.9	183.0 ± 0.0	18.0 ± 16.9	182.5 ± 43.1	24.4 ± 8.5	222.4 ± 159.2	0	244.0 ± 17.2	11.5	11.1			
CCOC(=O)[C@@H]1CC2=C(C(=O)c3cc4ccccc4c(O)c3C2=O)[C@@H](O[C@H]2C[C@H](NC(=O)C(F)(F)F)[C@H](O)[C@H](C)O2)O1 [BCH-681, (1'S,1R,3S)Ethyl[6-hydroxy-5,12-dioxo-1-(3'-trifuloroacetamido-1-daunosaminyl)-3,4,5,12-tetrahydroanthraceno(2,3-C)pyran-3-yl]formate]												82.7 ± 30.1	326.3 ± 56.0			4.89		1.72	6.02	
CCOC(=O)[C@H]1CC2=C(C(=O)c3cc4ccccc4c(O)c3C2=O)[C@H](O[C@H]2C[C@H](NC(=O)C(F)(F)F)[C@H](O)[C@H](C)O2)O1 [BCH-684, (1'S,1S,3R)Ethyl[6-hydroxy-5,12-dioxo-1-(3'-trifluoroacetamido-1-daunosaminyl)-3,4,5,12-tetrahydroanthraceno(2,3-C)pyran-3-yl]formate]												161.6 ± 30.1	437.1 ± 30.1	115.9 ± 8.6	225.7 ± 25.8				4.19	more active in the adriamycin resistant cell line
CC(=O)Oc1c2c(c(O)c3ccccc13)C(=O)C1=C(C2=O)C(O)OC(C(C)=O)C1 (centres unmarked) [BCH-704, Methyl(11-acetoxy-1,6-dihydroxy-5,12-dioxo-3,4,5,12-tetrahydroanthraceno[2,3-c]pyran-3-yl)ketone]										38.3 ± 2.4	131.1 ± 31.1	122.0 ± 25.8	323.0 ± 16.8	183.0 ± 10.8	320.5 ± 21.5	28.3		10.7	16.4	
C=CC1CC2=C(C(=O)c3cc4ccccc4c(O)c3C2=O)C(OC)O1 (centres unmarked) [BCH-712, 6-hydroxy-1-methoxy-1,2,3,4-tetrahydro-3-vinyl-(2-oxygen) naphthacene-5,12-dione]		0	42.5 ± 9.1	0	27.0 ± 4.2	0	158.0 ± 34.6	6.1 ± 0.0	70.0 ± 21.2	9.0 ± 4.2	158.0 ± 34.6	24.0 ± 8.4	79.0 ± 8.4	0	54.5 ± 9.1					more active in the adriamycin resistant cell line
CCOC(=O)C1Cc2c(c(OC)c3c(c2OC)C(=O)c2ccccc2C3=O)CS1 (centres unmarked) [BCH-717]		0	0	0	106.0 ± 64.3	18.3	39.5 ± 30.4	0	122.0 ± 0.0	0	61.0 ± 0.0	0	0	0	0	> 100		> 100	> 100	

From US5593970A, “Heterocyclic anthracycline analogs” (priority 1994, dated 1997)
